Source: PMC10090446, “Population pharmacokinetic analysis and dosing optimization of polymyxin B in critically ill patients” (Frontiers in Pharmacology, 2023)
Positions of bridges follow the written chain, without caps; N, C: chain ends. Non-standard residues stand in square brackets, D forms with d. Residues, ends and D or L forms follow the SMILES beside them. *: point of attachment. X1 = CC[C@H](C)CCCCC(=O)*; Dab = NCC[C@H](N)C(=O)O

Columns and labels:
[1] = Steady-state plasma concentrations of polymyxin B (total of B1, B2, B1-Ile) by LC-MS/MS; type: in vivo; settings: human, iv, read-out: OUT (observed polymyxin B plasma concentration)
From the text: We gather data from critically ill patients (≥18 years old) who were given intravenous drip polymyxin B treatment with blood concentration monitoring at the hospital from November 2021 to September 2022. The attending physician decided to administer polymyxin B. At the same time, patients who received continuous renal replacement therapy (CRRT) (n = 10) or extracorporeal membrane oxygenation (ECMO) (n = 2) at the time of blood collection were excluded. Patients’ information, including gender, age, WT, serum creatinine (Scr), CCR, ALB, APACHE-II, infection diagnosis, and pathogenic bacteria, were obtained from the electronic system for medical records. CCR was generated by adopting the Cockcroft—Gault equation with WT and age ([Cucci et al., 2022]). The Ethical Committees of the Second Affiliated Hospital of the South China University of Technology authorized the study (K-2022-020-01).
Patients were treated with polymyxin B, and plasma samples were collected ≥ 48 h after the treatment. Each patient contributed clinical samples, of which 37.5% (n = 24) were sampled with troughs (within 1 h before administration), 35.9% (n = 23) were sampled with peaks (within 1 h after the end of the infusion), and 26.6% (n = 17) were sampled at 6-8 h after the infusion. The dosing regimens of polymyxin B were a loading dose of 100 mg–150 mg and a maintenance dose of 50 mg–75 mg q12h, and the infusion duration was about 1–2 h. In preparation for analysis, samples were centrifuged for 10 min at 3000 r min^-1 after collection, and the upper plasma after centrifugation was stored at −20°C.
According to previous studies, total polymyxin B1, polymyxin B2, and polymyxin B1-Ile concentrations in human blood plasma were quantified using LC-MS/MS ([Meng et al., 2016]; [Hee et al., 2017]). The standard used in our experiments was the USP standard with the batch number of R104F0. The chromatographic column was the Kinetex C18 (3 μm × 2.1 mm×100 mm. Phenomenex). A: B mobile phase was 0.1% formic acid to acetonitrile. With changes in the linear velocity ratio, gradient elution was as follows: 15% −15% B, 0–2.0 min; 15%–10% B, 2.01–4.0 min; 10%–30% B, 4.01–5.0 min; 15% B, 5.01 min; and 15%–15% B, 5.02–10 min. The flow rate was constrained to 0.8 mL min^-1, and the column temperature was set to 40°C. The parent/daughter ion mass ratios used in the mass spectrometry were m/z 602.6/241.2 (polymyxin B1 and B1-Ile) and m/z 595.6/202.1 (polymyxin B2). Plasma samples (100 μL) were collected from centrifuged blood samples, mixed with 500 μL precipitant (acetonitrile with 6.67% formic acid) and vortexed well for 1 min. The lower limit of quantification (LLOQ) of the bioanalytical method used for quantifying polymyxin B1, B2, and B1-Ile concentrations was 0.19, 0.02 and 0.02 mg L^-1, respectively. The linear relationships of polymyxin B1, B2, and B1-Ile concentrations in the range of 0.19–24.13 mg L^-1, 0.02–2.7 mg L^-1 and 0.02–2.38 mg L^-1 were considered good (R^2 = 0.99677, R^2 = 0.99656, R^2 = 0.99484) and the accuracy was within 95.3%–105.3%, 92.2%–104.8%, and 95.8%–105.4%. […] Finally, 200 μL of the supernatant from the centrifugation of the combination at 14,000 r min^-1 for 10 min was employed to measure the amounts of polymyxin B.

[2] = critically ill patients; ref Ye et al., 2022; cited from earlier work
From the text: Over the last decade, more pathogenic bacteria have developed resistance, making many first-line antibiotics ineffective against infections ([Mohapatra et al., 2021]). Polymyxins were used extensively as salvage therapeutic agents for combating multidrug-resistant gram-negative bacteria (MDR-GNB) infections ([Falagas et al., 2021]). […] These specific physiolog ...

[3] = used to convert fAUC/MIC target; ref Sandri et al., 2013; cited from earlier work
Method: Combined with population PK/PD feature parameters of antibiotics medicines, the PTA of PK/PD target for a dosing regimen at a predetermined minimum inhibitory concentration (MIC) was performed by Monte Carlo simulation. According to the 2019 International Consensus Guidelines ([Tsuji et al., 2019]), the target of fAUC/MIC for polymyxins was around 20, and the unbound fraction was determined to be 0.42 ([Sandri et al., 2013]). Thus AUC/MIC ≥ 50 was set as the efficacy target, as well as the MIC range was set at 0.25–4 mg L^-1 ([Satlin et al., 2020]). Additionally, considering the nephrotoxicity ...

Q: With CC[C@H](C)CCCCC(=O)N[C@@H](CCN)C(=O)N[C@H](C(=O)N[C@@H](CCN)C(=O)N[C@H]1CCNC(=O)[C@H]([C@@H](C)O)NC(=O)[C@H](CCN)NC(=O)[C@H](CCN)NC(=O)[C@H](CC(C)C)NC(=O)[C@@H](Cc2ccccc2)NC(=O)[C@H](CCN)NC1=O)[C@@H](C)O [polymyxin B] (X1-[Dab]T[Dab][Dab][Dab][dF]L[Dab][Dab]T; lactam 4-C) as the compound, how does the level at 330 h ([1]; patient ID 3, TIME 330, DOSE 100 at 0 then 50 from 12, ADDL 27, II 12, DUR 1, WT 57, CCR 61.5, ALB 33.8, APACHE 21, single sample) read?
A: Its level at 330 h is 2930 ng/mL.

Q: What about the level at 336 h ([1]; patient ID 3, TIME 336, DOSE 100 at 0 then 50 from 12, ADDL 27, II 12, DUR 1, WT 57, CCR 61.5, ALB 33.8, APACHE 21, single sample) of the same compound?
A: Its level at 336 h is 3140 ng/mL.

Q: And the level at 59 h ([1]; patient ID 4, TIME 59, DOSE 100 at 0 then 50 every 12 to 48, DUR 1, WT 58, CCR 61.95, ALB 25.5, APACHE 28, single sample)?
A: Its level at 59 h is 863 ng/mL.

Q: What about the level at 64.5 h ([1]; patient ID 4, TIME 64.5, DOSE 100 at 0 then 50 every 12 to 60, DUR 1, WT 58, CCR 61.95, ALB 25.5, APACHE 28, single sample) of the same compound?
A: The level at 64.5 h was 2330 ng/mL.

Q: And the level at 167.9 h ([1]; patient ID 5, TIME 167.9, DOSE 100 at 0 then 50 from 12, ADDL 15, II 12, DUR 1, WT 60, CCR 41.15, ALB 36.1, APACHE 21, single sample)?
A: Its level at 167.9 h is 2900 ng/mL.

Q: What about the level at 182 h ([1]; patient ID 5, TIME 182, DOSE 100 at 0 then 50 from 12, ADDL 15, II 12, DUR 1, WT 60, CCR 41.15, ALB 36.1, APACHE 21, single sample) of the same compound?
A: Its level at 182 h is 4510 ng/mL.

Q: And the level at 186 h ([1]; patient ID 5, TIME 186, DOSE 100 at 0 then 50 from 12, ADDL 15, II 12, DUR 1, WT 60, CCR 41.15, ALB 36.1, APACHE 21, single sample)?
A: Its level at 186 h is 3290 ng/mL.

Q: And the level at 73.25 h ([1]; patient ID 10, TIME 73.25, DOSE 100 at 0 then 50 every 12 to 72, DUR 1, WT 62, CCR 72.12, ALB 33.9, APACHE 17, single sample)?
A: Its level at 73.25 h is 6730 ng/mL.

Q: And the level at 79 h ([1]; patient ID 10, TIME 79, DOSE 100 at 0 then 50 every 12 to 72, DUR 1, WT 62, CCR 72.12, ALB 33.9, APACHE 17, single sample)?
A: The level at 79 h was 6230 ng/mL.

Q: What about the level at 84.42 h ([1]; patient ID 10, TIME 84.42, DOSE 100 at 0 then 50 every 12 to 72, DUR 1, WT 62, CCR 72.12, ALB 33.9, APACHE 17, single sample) of the same compound?
A: The level at 84.42 h was 3890 ng/mL.

Q: And the level at 98 h ([1]; patient ID 11, TIME 98, DOSE 100 at 0 then 50 every 12 to 96, DUR 2, WT 55, CCR 67.29, ALB 30.9, APACHE 46, single sample)?
A: Its level at 98 h is 5200 ng/mL.

Q: And the level at 102 h ([1]; patient ID 11, TIME 102, DOSE 100 at 0 then 50 every 12 to 96, DUR 2, WT 55, CCR 67.29, ALB 30.9, APACHE 46, single sample)?
A: The level at 102 h was 2530 ng/mL.

Q: What about the level at 105.5 h ([1]; patient ID 11, TIME 105.5, DOSE 100 at 0 then 50 every 12 to 96, DUR 2, WT 55, CCR 67.29, ALB 30.9, APACHE 46, single sample) of the same compound?
A: Its level at 105.5 h is 2180 ng/mL.

Q: And the level at 145 h ([1]; patient ID 13, TIME 145, DOSE 75 at 0 then 50 every 12 from 12 (ADDL 12), DUR 1, WT 57, CCR 41.39, ALB 24.4, APACHE 18, single measurement)?
A: The level at 145 h was 2590 ng/mL.

Q: And the level at 150 h ([1]; patient ID 13, TIME 150, DOSE 75 at 0 then 50 every 12 from 12 (ADDL 12), DUR 1, WT 57, CCR 41.39, ALB 24.4, APACHE 18, single measurement)?
A: The level at 150 h was 1830 ng/mL.

Q: What about the level at 156 h ([1]; patient ID 13, TIME 156, DOSE 75 at 0 then 50 every 12 from 12 (ADDL 12), DUR 1, WT 57, CCR 41.39, ALB 24.4, APACHE 18, single measurement) of the same compound?
A: The level at 156 h was 1090 ng/mL.

Q: What about the level at 50.5 h ([1]; patient ID 14, TIME 50.5, DOSE 100 at 0, 50 at 12, 24, 36, 50.8, DUR 1, WT 60, CCR 111.4, ALB 25.4, APACHE 25, single measurement) of the same compound?
A: The level at 50.5 h was 1140 ng/mL.

Q: And the level at 51.8 h ([1]; patient ID 14, TIME 51.8, DOSE 100 at 0, 50 at 12, 24, 36, 50.8, DUR 1, WT 60, CCR 111.4, ALB 25.4, APACHE 25, single measurement)?
A: The level at 51.8 h was 4060 ng/mL.

Q: And the level at 57.8 h ([1]; patient ID 14, TIME 57.8, DOSE 100 at 0, 50 at 12, 24, 36, 50.8, DUR 1, WT 60, CCR 111.4, ALB 25.4, APACHE 25, single measurement)?
A: Its level at 57.8 h is 1820 ng/mL.

Q: What about the level at 72.66 h ([1]; patient ID 15, TIME 72.66, DOSE 100 at 0, 50 at 12, 100 at 24, 75 at 36, 48, 60, WT 50, CCR 35.85, ALB 29.5, APACHE 39, single measurement) of the same compound?
A: The level at 72.66 h was 3110 ng/mL.

Q: And the level at 54.67 h ([1]; patient ID 19, TIME 54.67, DOSE 100 at 0 then 50 every 12 from 12 (ADDL 3), DUR 1, WT 60, CCR 35.69, ALB 25.6, APACHE 19, single measurement)?
A: The level at 54.67 h was 1860 ng/mL.

Q: What about the level at 60 h ([1]; patient ID 19, TIME 60, DOSE 100 at 0 then 50 every 12 from 12 (ADDL 3), DUR 1, WT 60, CCR 35.69, ALB 25.6, APACHE 19, single measurement) of the same compound?
A: The level at 60 h was 1300 ng/mL.

Q: And the level at 73.45 h ([1]; patient ID 20, TIME 73.45, DOSE 100 at 0 then 50 every 12 from 12 (ADDL 6), DUR 1.45, WT 75, CCR 84.86, ALB 29.5, APACHE 18, single measurement)?
A: The level at 73.45 h was 4270 ng/mL.

Q: And the level at 77.45 h ([1]; patient ID 20, TIME 77.45, DOSE 100 at 0 then 50 every 12 from 12 (ADDL 6), DUR 1.45, WT 75, CCR 84.86, ALB 29.5, APACHE 18, single measurement)?
A: The level at 77.45 h was 2700 ng/mL.

Q: And the level at 84 h ([1]; patient ID 20, TIME 84, DOSE 100 at 0 then 50 every 12 from 12 (ADDL 6), DUR 1.45, WT 75, CCR 84.86, ALB 29.5, APACHE 18, single measurement)?
A: The level at 84 h was 1960 ng/mL.

Q: What about the level at 50 h ([1]; patient ID 21, TIME 50, DOSE 150 at 0 then 75 every 12 from 12 (ADDL 4), DUR 2, WT 70, CCR 56.54, ALB 38.1, APACHE 40, single measurement) of the same compound?
A: Its level at 50 h is 7030 ng/mL.

Q: What about the level at 54 h ([1]; patient ID 21, TIME 54, DOSE 150 at 0 then 75 every 12 from 12 (ADDL 4), DUR 2, WT 70, CCR 56.54, ALB 38.1, APACHE 40, single measurement) of the same compound?
A: The level at 54 h was 3830 ng/mL.

Q: What about the “rate of reaching the standard polymyxin B exposure AUC at a typical clinical dose” value [2] of the same compound?
A: The value was “approximately 54.3%”.

Q: And the unbound fraction [3]?
A: The unbound fraction was 0.42.
